Results taken from ChEMBL document CHEMBL4665694, “Integrating the Impact of Lipophilicity on Potency and Pharmacokinetic Parameters Enables the Use of Diverse Chemical Space during Small Molecule Drug Optimization” (J Med Chem, 2020).

What was measured:
Format in all cases: ADME
[1] = Unbound volume of distribution at steady state in human
[2] = AUC at steady state in human administered as single dose
[3] = Unbound clearance in human
[4] = Unbound AUC at steady state in human administered as single dose
[5] = Half life in human
[6] = Fraction unbound in human
[7] = Volume of distribution at steady state in human; conditions: read-out: Vdss
[8] = Clearance in human
[9] = AUC in human administered as single dose
[10] = Unbound AUC in human administered as single dose

SMILES	fVdss [1] [L/kg]	AUC [2] [ng·h/mL]	CL free [3] [mL/min/kg]	fAUC [4] [ng·h/mL]	half-life [5] [h]	fraction unbound [6]	Vd [7] [L/kg]	clearance [8] [mL/min/kg]	AUC [9] [ng·h/mL]	fAUC [10] [ng·h/mL]
CCC(C)n1ncn(-c2ccc(N3CCN(c4ccc(OCC5COC(Cn6cncn6)(c6ccc(Cl)cc6Cl)O5)cc4)CC3)cc2)c1=O (stereo unspecified) [ITRACONAZOLE]	> 5000	23000	> 2700	50	23	≤ 0.002	11	5.4		
OC(Cn1cncn1)(Cn1cncn1)c1ccc(F)cc1F [FLUCONAZOLE]	1		1		32	0.9	0.9	0.9	100000	90000
